Assay results published in patent publication US9949489B2, “Methods for control of hemipteran insect stylet sheath structure formation” (The United States of America, as Represented by the …, priority 2015, dated 2018).

Tests used:
D. citri [1] = assay: Liquid ACP diet sandwich feeding assay (MFC): inhibition of de novo stylet sheath formation; type: in vivo, Diaphorina citri; design: key: −: No effect apparent inhibition of stylet sheath; +/−: inconclusive inhibition; +: apparent slight inhibition effect; ++: increased apparent inhibition effect; +++: high inhibition effect; ++++: very high inhibition effect; +++++: complete inhibition of sheath synthesis; details: small molecule in liquid ACP diet, about 24 h, concentration, pH, 25° C. per Table 3
Description: (§1) The next step was to determine if addition of cellulase to the diet of D. citri would interfere with stylet sheath formation. A D. citri diet is prepared as described by Hall, David et al., “Research toward an artificial diet for adult Asian citrus psyllid,” Annals of the Entomological Society of America 103.4:611-617 (2010). Approximately 25 D. citri were collected into polystyrene Cellstar 35 mm×10 mm dishes (Griener Bio-One, Monroe, N.C.) that were then sealed using a single layer of Parafilm® M (Pechiney Plastic Packaging Company, Chicago, Ill.). Approximately 99 μl of liquid ACP diet (e.g., diet lacking the solidifying agar component, see Hall, et. al., 2010, supra) was mixed with approximately 1 μl of cellulase (Sigma Aldrich, St. Louis, Mo.) and mixed. […] layer Parafilm® M surface, which was then covered with another layer of Parafilm® M to form a sandwich (e.g., Parafilm® M—liquid ACP diet with cellulase—Parafilm® M) to allow ACP to feed into the liquid ACP diet containing cellulase. This MFC was then incubated at about 25° C., at about 75% relative humidity, with a light:dark cycle of approximately 14:10 hours for a period of about 24 hours. After about 24 hours, the stylet sheaths were observed using an inverted microscope. FIGS. 3G through 3I are images of three separate locations where D. citri made attempts to feed into the liquid ACP diet containing approximately 1 unit/μl cellulase.
(§2) Because many biomolecule polymerizing enzymes require divalent cations as cofactors, the effect of ethylenediaminetetraacetic acid (EDTA), a chelator of divalent cations, on ACP SS formation was tested by adding EDTA to the previously described liquid ACP diet (see Hall et al., 2010, supra). The EDTA was added to the liquid ACP diet at a concentration of approximately 2 mM EDTA in diH2O. Approximately 200 D. citri were placed in plastic Petri dishes. The dishes were covered with a single layer of Parafilm® M to form MFC. […] The MFC plates were incubated at a temperature of about 25° C., a relative humidity of about 75%, and a light/dark cycle of about 14:10 hours duration. Following the 24-hour incubation, the fluid (either liquid ACP diet containing EDTA or just the liquid ACP diet) between the two sheets of plastic was harvested by using a sterile 5 ml syringe and 20-gauge needle which was pushed into the center of the Parafilm® M-fluid-Parafilm® M sandwich, and the fluid was then removed by syringe plunger suction. The harvested fluids were put into sterile 50 ml conical vials, placed at about −80° C. until frozen. Each vial of harvested fluid was then lypholyzed overnight. The lyophilized product was then solubilized in […], placed at about −80° C. until frozen, then each new vial was lyopholyzed overnight. The lyophilized product was then solubilized in approximately 15 μL of approximately 1× Laemmili buffer (Bio-Rad, Hercules, Calif.) containing approximately 5% 2-mercaptoethanol. The sample was loaded onto a sodium dodecyl sulfate polyacrylamide gel (SDS-PAGE) and underwent electrophoresis. The SDS PAGE gel was then stained with coomassie. Uncommon bands between the liquid ACP diet containing EDTA and liquid ACP diet without EDTA (negative control) lanes were cut out and analyzed by Orbitrap (Thermo Scientific, Waltham, Mass.) protein analysis, according to manufacturer's protocol.
(§3) After about 24-hour incubation, D. citri feeding sites were observed. […] See also Table 2 and Table 3, infra.

D. citri [2] = assay: as above; type: in vivo, Diaphorina citri; details: for Effect on D. citri stylet sheath formation in liquid ACP diet: about 24 h, cellulase approx 1 unit/μl, BAPN 100 mM, EDTA approx 2 mM, proteases per Table 5; for Effect (on ACP stylet sheath formation): D. citri, GRAS small molecule in 175 μL liquid ACP diet at the mM concentration of Table 8, about 24 h
Description: as §1, §2, §3

[3] = test system: Bemisia tabaci biotype B whitefly; assay: Liquid ACP diet sandwich feeding assay: stylet sheath formation by whitefly; type: in vivo; design: key to Inhibition of Sheath Formation: −: No effect apparent inhibition of stylet sheath; +/−: inconclusive inhibition; +: apparent slight inhibition effect; ++: increased apparent inhibition effect; +++: high inhibition effect; ++++: very high inhibition effect; +++++: complete inhibition of sheath synthesis
Description: The effects of a protease (bromelain and ficin) contained within the previously described artificial diet (liquid ACP diet) were tested on the Bemisia tabaci biotype B whitefly (a Aleyrodidae, an SSFHI) using approximately 100 live B. tabaci. Approximately 100 live B. tabaci were placed into polystyrene Cellstar 35 mm×10 mm dishes (Griener Bio-One, Monroe, N.C.) using the liquid ACP diet “sandwich” described in Example 2, using approximately 200 μL liquid ACP diet with or without a protease using the conditions described in Table 6 below. The MFCs were incubated at a temperature of about 25° C., a relative humidity of about 75%, and a light:dark cycle of approximately 14:10 hours. MFCs were maintained within clear Pyrex® baking dishes with the membrane (liquid ACP diet “sandwich”) side up, and the baking dish covered in a single layer of clear plastic wrap to prevent external contaminant interactions with the membrane surface during incubation. After about 24 hours incubation, the B. tabaci feeding sites were observed using an inverted microscope to see the effects of proteases in diet on the stylet sheaths for B. tabaci.
After performing the experiments using liquid ACP diet containing either bromelain or ficin experiment on B. tabaci, a similar experiment is performed substituting BAPN for the enzyme. […]

Row | Structure (SMILES) | Inhibition of Sheath Formation (D. citri [1]) | Effect (on ACP stylet sheath formation) (D. citri [2]) | other results
1 | O[C@H](CS)[C@H](O)CS (racemic) [Dithiothreitol Solution (DTT), Dithiothreitol] | ‘+++++’ (D. citri) |  | 
2 | N#CCCN.O=C(O)/C=C/C(=O)O [3-aminopropionitrile fumarate salt] | ‘+++++’ (D. citri) |  | Effect on D. citri stylet sheath formation in liquid ACP diet (D. citri [2]): prohibited the solidification of the ACP SS; Inhibition of Sheath Formation ([3]; WF (Bemisia tabaci, B biotype), BAPN 50 mM in diet): ‘+++++’ (WF); Effect on B. tabaci stylet sheath formation in liquid ACP diet ([3]; about 24 hours, bromelain or ficin 10 units in 250 μl of diet, BAPN 50 mM): prevents stylet sheath formation
3 | OCc1ccc(O)cc1 [4-hydroxybenzyl alcohol] | ‘−’ (D. citri) |  | 
4 | O=c1ccc2ccc(O)cc2o1 [7-HO-Coumarin, 7-hydroxy-coumarin] |  | Malformed sheaths | 
5 | [NH4+].[NH4+].[SH-].[SH-].[S]=[Mo]=[S] [Ammonium Tetrathiomolybdate] | ‘+++++’ (D. citri) |  | Effect on D. citri stylet sheath formation in liquid ACP diet (D. citri [2]): potent inhibitor of D. citri sheath formation
6 | COc1ccc([C@@H]2CC(=O)c3c(O)cc(O[C@@H]4O[C@H](CO[C@@H]5O[C@@H](C)[C@H](O)[C@@H](O)[C@H]5O)[C@@H](O)[C@H](O)[C@H]4O)cc3O2)cc1 [Didymin] |  | Malformed sheaths | 
7 | C[C@@H]1O[C@@H](OC[C@H]2O[C@@H](Oc3cc(O)c4c(c3)O[C@H](c3ccc(O)c(O)c3)CC4=O)[C@H](O)[C@@H](O)[C@@H]2O)[C@H](O)[C@H](O)[C@H]1O [Eriocitrin] |  | Malformed sheaths | Effect (on ACP stylet sheath formation) (D. citri [2]; listed as eriocitrin): malformation of sheaths
8 | O=C1C[C@@H](c2ccc(O)c(O)c2)Oc2cc(O)cc(O)c21 [Eriodictyol] |  | Malformed sheaths | 
9 | O=C(O)CN(CCN(CC(=O)O)CC(=O)O)CC(=O)O [Ethylenediaminetetraacetic acid (EDTA), Ethylenediaminetetraacetic acid] | ‘+++++’ (D. citri) |  | Effect on D. citri stylet sheath formation in liquid ACP diet (D. citri [2]): can inhibit sheath formation
10 | COc1ccc([C@@H]2CC(=O)c3c(O)cc(O)cc3O2)cc1O [Hesperetin] |  | Malformed sheaths | 
11 | COc1ccc([C@@H]2CC(=O)c3c(O)cc(O[C@@H]4O[C@H](CO[C@@H]5O[C@@H](C)[C@H](O)[C@@H](O)[C@H]5O)[C@@H](O)[C@H](O)[C@H]4O)cc3O2)cc1O [Hesperidin] |  | No Effect | 
12 | O=c1cc(CO)occ1O [Kojic Acid] | ‘++’ (D. citri) |  | 
13 | CC1(C)O[C@H]2CC(=O)OC[C@]23[C@H]2CC[C@@](C)([C@@H](O[C@@H]4O[C@H](CO)[C@@H](O)[C@H](O)[C@H]4O)c4ccoc4)[C@@]4(O[C@@H]4C(=O)O)[C@]2(C)C(=O)C[C@@H]13 [Limonin glucoside] |  | Malformed sheaths | 
14 | CC1(C)O[C@H]2CC(=O)OC[C@]23[C@H]2CC[C@@]4(C)[C@H](c5ccoc5)OC(=O)[C@H]5O[C@]54[C@]2(C)C(=O)C[C@@H]13 [Limonin] |  | Malformed sheaths | 
15 | O=C1C[C@@H](c2ccc(O)cc2)Oc2cc(O)cc(O)c21 [Naringenin] |  | Malformed sheaths | 
16 | C[C@@H]1O[C@@H](O[C@H]2[C@H](Oc3cc(O)c4c(c3)O[C@H](c3ccc(O)cc3)CC4=O)O[C@H](CO)[C@@H](O)[C@@H]2O)[C@H](O)[C@H](O)[C@H]1O [Naringin] |  | Malformed sheaths | 
17 | O=C([O-])CN(CC(=O)[O-])CC(=O)[O-].[Na+].[Na+].[Na+] [Nitrilotriacetic acid trisodium salt] | ‘+++++’ (D. citri) |  | 
18 | CC(=O)O[C@H]1CC(=O)OC(C)(C)[C@@H]2CC(=O)[C@]3(C)[C@H](CC[C@@]4(C)[C@H](c5ccoc5)OC(=O)[C@H]5O[C@]543)[C@@]12C [Nomilin] |  |  | Effect (on ACP stylet sheath formation) (D. citri [2]; listed as nomilin): inhibition of flange solidification
